Test results as given in the Kinase Knowledgebase extract (Sharma et al. 2016).
Values joined by “and” are separate entries in the source; they are usually repeats but may differ in a detail not shown here. Identical values can stand only once.

Tests used:
EGFR (human) = EGFR (human) (UniProt P00533); conditions: kb
EGFR = EGFR (UniProt P00533)
Sequence of EGFR (P00533 whole entry, looked up): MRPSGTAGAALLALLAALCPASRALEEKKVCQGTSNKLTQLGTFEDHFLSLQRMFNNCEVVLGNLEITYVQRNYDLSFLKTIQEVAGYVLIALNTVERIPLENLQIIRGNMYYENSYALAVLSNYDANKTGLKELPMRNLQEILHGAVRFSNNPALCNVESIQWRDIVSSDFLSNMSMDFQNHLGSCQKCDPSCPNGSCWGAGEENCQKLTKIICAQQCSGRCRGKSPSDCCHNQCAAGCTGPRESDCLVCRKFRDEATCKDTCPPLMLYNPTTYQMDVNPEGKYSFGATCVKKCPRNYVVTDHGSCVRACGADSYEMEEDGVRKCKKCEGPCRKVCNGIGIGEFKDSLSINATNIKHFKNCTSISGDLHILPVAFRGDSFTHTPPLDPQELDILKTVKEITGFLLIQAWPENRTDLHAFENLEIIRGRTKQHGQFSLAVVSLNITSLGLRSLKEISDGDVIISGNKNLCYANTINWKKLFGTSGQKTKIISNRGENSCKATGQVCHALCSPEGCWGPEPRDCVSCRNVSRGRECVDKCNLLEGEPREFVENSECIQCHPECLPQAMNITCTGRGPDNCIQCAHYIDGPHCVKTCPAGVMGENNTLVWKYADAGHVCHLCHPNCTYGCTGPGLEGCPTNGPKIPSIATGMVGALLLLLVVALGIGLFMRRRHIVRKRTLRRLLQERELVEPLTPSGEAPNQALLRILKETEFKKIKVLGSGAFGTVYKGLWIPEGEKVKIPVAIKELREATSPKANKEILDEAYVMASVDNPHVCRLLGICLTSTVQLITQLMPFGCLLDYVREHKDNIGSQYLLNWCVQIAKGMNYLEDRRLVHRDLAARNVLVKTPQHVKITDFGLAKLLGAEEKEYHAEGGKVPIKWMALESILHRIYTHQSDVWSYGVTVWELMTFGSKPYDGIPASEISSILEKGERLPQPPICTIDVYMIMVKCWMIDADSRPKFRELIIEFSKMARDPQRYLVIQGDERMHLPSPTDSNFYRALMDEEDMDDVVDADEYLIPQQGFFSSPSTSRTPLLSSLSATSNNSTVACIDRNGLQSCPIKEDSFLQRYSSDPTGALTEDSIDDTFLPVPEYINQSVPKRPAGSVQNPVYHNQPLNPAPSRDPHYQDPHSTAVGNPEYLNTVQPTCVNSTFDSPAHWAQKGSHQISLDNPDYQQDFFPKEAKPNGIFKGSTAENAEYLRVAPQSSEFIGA

Sequence of EGFR (human) (P00533 whole entry, looked up): as above

Row | IC50 (EGFR (human)) [nM] | IC50 (EGFR) | SMILES
1 | 1 to 100 | 3 nM and 1 to 100 nM | COc1cc2ncnc(Nc3cccc(Cl)c3F)c2cc1OC1CCN(C(=O)CO)CC1
2 | 1 to 100 | 1 to 100 nM | COc1cc2ncnc(Nc3cccc(Cl)c3F)c2cc1OC1CCN(C(=O)COP(=O)(O)O)CC1
